{
  "source": "ChEMBL document CHEMBL1157154",
  "about": "“The synthesis of 5-substituted ring E analogs of methyllycaconitine via the Suzuki-Miyaura cross-coupling reaction” (Bioorg Med Chem, 2008)",
  "key": {"[1]": {"experiment": "Inhibition of nicotin-stimulated neurosecretion in bovine adrenal gland", "type": "functional, tissue-based, Bos taurus, Adrenal tissue"}, "[2]": {"target": "Neuronal acetylcholine receptor subunit alpha-7 (Bos taurus) (UniProt P54131)", "sequence (P54131 whole entry)": "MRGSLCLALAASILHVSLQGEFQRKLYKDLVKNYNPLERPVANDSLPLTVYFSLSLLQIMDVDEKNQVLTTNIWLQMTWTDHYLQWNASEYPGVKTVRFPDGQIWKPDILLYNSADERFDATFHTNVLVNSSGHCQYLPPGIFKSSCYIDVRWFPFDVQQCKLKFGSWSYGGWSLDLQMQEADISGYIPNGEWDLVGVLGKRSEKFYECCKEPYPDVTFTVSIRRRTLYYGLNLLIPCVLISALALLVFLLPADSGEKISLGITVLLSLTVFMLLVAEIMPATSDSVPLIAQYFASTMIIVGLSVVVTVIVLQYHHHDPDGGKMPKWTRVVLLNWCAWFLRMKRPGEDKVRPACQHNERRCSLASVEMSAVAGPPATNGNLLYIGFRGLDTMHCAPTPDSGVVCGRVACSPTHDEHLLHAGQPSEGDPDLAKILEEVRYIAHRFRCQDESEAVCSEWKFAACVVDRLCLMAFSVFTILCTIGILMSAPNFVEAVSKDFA", "experiment": "Displacement of [125I]alpha-bungarotoxin from bovine alpha7 nAChR expressed in HEK293 cells at 10 uM", "type": "cell-based"}, "[3]": {"target": "Neuronal acetylcholine receptor subunit alpha-3 (Bos taurus) (UniProt Q07263)", "sequence (Q07263 whole entry)": "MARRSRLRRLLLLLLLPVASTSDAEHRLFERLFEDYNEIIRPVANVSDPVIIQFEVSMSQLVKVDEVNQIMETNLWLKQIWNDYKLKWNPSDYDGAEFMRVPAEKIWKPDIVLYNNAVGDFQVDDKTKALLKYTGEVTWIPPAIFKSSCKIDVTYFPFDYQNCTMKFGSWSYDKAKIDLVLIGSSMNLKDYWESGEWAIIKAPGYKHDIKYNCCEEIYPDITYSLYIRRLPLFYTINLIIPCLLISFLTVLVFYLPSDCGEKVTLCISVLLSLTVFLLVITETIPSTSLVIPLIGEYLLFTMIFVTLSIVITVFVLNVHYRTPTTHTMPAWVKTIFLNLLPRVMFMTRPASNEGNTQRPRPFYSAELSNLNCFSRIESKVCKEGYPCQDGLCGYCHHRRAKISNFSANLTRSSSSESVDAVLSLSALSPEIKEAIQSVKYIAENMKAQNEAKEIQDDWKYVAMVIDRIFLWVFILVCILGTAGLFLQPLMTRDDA", "experiment": "Displacement of [3H]epibatidine from bovine […] nAChR expressed in HEK293 cells at 10 uM", "type": "cell-based"}, "[4]": {"target": "Neuronal acetylcholine receptor subunit alpha-7 (Bos taurus) (UniProt P54131)", "experiment": "Displacement of [125I]alpha-bungarotoxin from bovine alpha7 nAChR expressed in HEK293 cells at 1.0 uM", "type": "cell-based"}, "[5]": {"target": "Neuronal acetylcholine receptor subunit alpha-3 (Bos taurus) (UniProt Q07263)", "experiment": "Displacement of [3H]epibatidine from bovine […] nAChR expressed in HEK293 cells at 1.0 uM", "type": "cell-based"}, "[6]": {"target": "Neuronal acetylcholine receptor subunit alpha-7 (Bos taurus, UniProt P54131)", "sequence (P54131 whole entry)": "as the sequence (P54131 whole entry) above", "experiment": "Displacement of [125I]alpha-bungarotoxin from bovine alpha7 nAChR expressed in HEK293 cells", "type": "cell-based"}},
  "data": [
    {"smiles": "CC1CC(=O)N(c2ccccc2C(=O)OC[C@@H]2C[C@H](CCCCCO[Si](C)(C)C(C)(C)C)CN(CCCc3ccccc3)C2)C1=O", "note": "(stereo not given in full)", "values": [
      {"measurement": "IC50", "setting": "[1]", "value": 2, "unit": "µM"},
      {"measurement": "Activity", "setting": "[2]", "value": 88.8, "unit": "%"},
      {"measurement": "Activity", "setting": "[3]", "value": 118, "unit": "%"}
    ]},
    {"smiles": "CC1CC(=O)N(c2ccccc2C(=O)OC[C@@H]2C[C@H](c3ccccc3)CN(CCCc3ccccc3)C2)C1=O", "note": "(stereo not given in full)", "values": [
      {"measurement": "Activity", "setting": "[2]", "value": 94.3, "unit": "%"},
      {"measurement": "Activity", "setting": "[3]", "value": 86.8, "unit": "%"}
    ]},
    {"smiles": "CCN1C[C@]2(COC(=O)c3ccccc3N3C(=O)C[C@H](C)C3=O)CC[C@H](OC)[C@@]34[C@@H]5C[C@H]6[C@H](OC)[C@@H]5[C@](O)(C[C@@H]6OC)[C@](O)([C@@H](OC)[C@H]23)[C@@H]14", "values": [
      {"measurement": "Activity", "setting": "[4]", "value": 7.5, "unit": "%"},
      {"measurement": "Activity", "setting": "[5]", "value": 50.1, "unit": "%"}
    ]},
    {"smiles": "CCCCCC[C@H]1C[C@@H](COC(=O)c2ccccc2N2C(=O)CC(C)C2=O)CN(CCCc2ccccc2)C1", "note": "(stereo not given in full)", "values": [
      {"measurement": "IC50", "setting": "[1]", "value": 2, "unit": "µM"},
      {"measurement": "Activity", "setting": "[2]", "value": 92.2, "unit": "%"},
      {"measurement": "Activity", "setting": "[3]", "value": 105, "unit": "%"}
    ]},
    {"smiles": "CC1CC(=O)N(c2ccccc2C(=O)OC[C@@H]2CCCN(CCCc3ccccc3)C2)C1=O", "note": "(stereo not given in full)", "values": [
      {"measurement": "IC50", "setting": "[6]", "value": 177, "unit": "µM"}
    ]},
    {"smiles": "CC1CC(=O)N(c2ccccc2C(=O)OC[C@@H]2C[C@H](C3CCCCC3)CN(CCCc3ccccc3)C2)C1=O", "note": "(stereo not given in full)", "values": [
      {"measurement": "Activity", "setting": "[2]", "value": 103, "unit": "%"}
    ]},
    {"smiles": "CC1CC(=O)N(c2ccccc2C(=O)OC[C@@H]2C[C@H](CCc3ccccc3)CN(CCCc3ccccc3)C2)C1=O", "note": "(stereo not given in full)", "values": [
      {"measurement": "Activity", "setting": "[2]", "value": 98.8, "unit": "%"},
      {"measurement": "Activity", "setting": "[3]", "value": 103, "unit": "%"}
    ]},
    {"smiles": "CC1CC(=O)N(c2ccccc2C(=O)OC[C@@H]2C[C@H](CC3CCCCC3)CN(CCCc3ccccc3)C2)C1=O", "note": "(stereo not given in full)", "values": [
      {"measurement": "Activity", "setting": "[2]", "value": 92.6, "unit": "%"}
    ]}
  ]
}
